Results: patent publication US10550143B2, “C,O-spiro aryl glycoside compounds, preparation therefor and use thereof” (SHANGHAI INSTITUTE OF MATERIA MEDICA, CHINESE ACADEMY OF …, priority 2015, dated 2020)

Experiments:
[1] = Pharmacokinetics in rats after intragastric and intravenous administration; assay type: in vivo, rat
Experimental: Six healthy rats were randomly divided into two groups, three for each group. A28 was administered orally and intravenously, and the drug was grounded and dissolved in 0.5% MC. Fasted for 8 h before testing.
Three rats were intravenously administrated with 2 mg/kg of test compound A28, and 3 rats were orally administered with 10 mg/kg of test compound A28. Blood was collected from the orbital venous plexus of rats before administration, at 15 min, 30 min, 1 hour, 2 hours, 4 hours, 8 hours, 24 hours after administration, respectively. Blood sample were taken from three rats at each time point for each dose, and the plasma was immediately centrifuged.

db/db mice = assay: Chronic administration, random blood glucose in db/db mice; assay type: in vivo, mouse; conditions: for random blood glucose Pre: before administration; for Hypoglycemic rate % week 1 / Hypoglycemic rate % week 2 / Hypoglycemic rate % week 3 / Hypoglycemic rate % week 4: random blood glucose
Experimental: Oral gavage administrated, daily dose volume was 10 mL/kg, administered once daily. Administration time was 9: 00-10:00 daily, and the administration period was 5 weeks.
The random blood glucose of mice in the normal control group, model control group, test substance administration group and positive control group were determined on the 7th, 14th, 21st, 28th day (9: 00-10:00) every week after the first administration, and food was removed and after 6 hours of starvation, the fasting blood glucose in each group was measured. Free drinking during the hunger process. The rate of decrease of blood glucose was calculated according to the following formula: Average hypoglycemic rate %=(Blood glucose of model control group−Blood glucose of administration group)/Model control group×100%

SD rats = assay: Acute single administration, urinary glucose changes in SD rats; assay type: in vivo, rat; set-up: Urine glucose concentration / The total amount of glucose excreted: unit not given here; conditions: 1 mg/kg oral, after 24 h
Experimental: (1) Acutely Administering Compound to Observed the Urinary Glucose Changes in SD Rats
Thirty-eight male normal SD rats were selected and randomly divided into 5 groups according to body weight and blood glucose, 6-8 in each group. […] After oral gavage, the rats were placed in rats metabolic cages, and urine was collected after 24 h, and the urine volume was recorded, the urine sugar concentration was determined, and urinary sugar content was calculated according to the following formula. Urine content=urinary sugar concentration×urine volume
Glucose levels in urine are measured by the glucose assay kit.
Data were expressed as mean±standard deviation (x±s), and Student's t test was used for statistical analysis of the data, p<0.05 was considered statistically significant.

[2] = rat, plasma, po, gavage 10 mg/kg

SMILES: CCc1ccc(Cc2cc3c(cc2Cl)CO[C@]32O[C@H](C)[C@@H](O)[C@H](O)[C@H]2O)s1 [Example A28, (1S,3′R,4′S,5′S,6′R)-6′-methyl-6-((5-ethylthienyl)-2-methyl)-5-chloro-3′,4′,5′,6′-tetrahydro-3H-spiro[isobenzofuran-1,2′-pyran]-3′,4′,5′-triol]
- AUC(0-t) ([1]; rat, plasma, intravenous, vein 2 mg/kg): 252 ng·h/mL
- AUC(0-inf) ([1]; rat, plasma, iv, vein 2 mg/kg): 252 ng·h/mL
- Cmax ([1]; rat, plasma, iv, vein 2 mg/kg): 201 ng/mL
- MRT ([1]; rat, plasma, iv, vein 2 mg/kg): 0.982 h
- Tmax ([1]; rat, plasma, iv, vein 2 mg/kg): 0.25 h
- half-life ([1]; rat, plasma, iv, vein 2 mg/kg): 1.53 h
- bioavailability ([1]; rat, plasma, oral, gavage 10 mg/kg vs vein 2 mg/kg, dose normalized, read-out: F (absolute bioavailability)): 107%
- AUC(0-inf) [1, 2]: 1350 ng·h/mL
- AUC(0-t) [1, 2]: 1350 ng·h/mL
- Cmax [1, 2]: 273 ng/mL
- MRT [1, 2]: 3.79 h
- Tmax [1, 2]: 1.67 h
- half-life [1, 2]: 1.69 h
- CLz ([1]; vein 2 mg/kg): 134 mL/min/kg
- random blood glucose week 1 (db/db mice; 0.3 mg/kg once daily oral): 16.9 ± 1.3 mmol/L
- random blood glucose week 2 (db/db mice; 0.3 mg/kg once daily oral): 15.7 ± 1.3 mmol/L
- random blood glucose week 3 (db/db mice; 0.3 mg/kg once daily oral): 16.7 ± 1.5 mmol/L
- random blood glucose week 4 (db/db mice; 0.3 mg/kg once daily oral): 19.1 ± 1.6 mmol/L
- random blood glucose Pre (db/db mice; 0.3 mg/kg once daily oral): 17.9 ± 1.4 mmol/L
- random blood glucose week 1 (db/db mice; 1 mg/kg once daily oral): 16.1 ± 1.0 mmol/L
- random blood glucose week 2 (db/db mice; 1 mg/kg once daily oral): 16.3 ± 1.2 mmol/L
- random blood glucose week 3 (db/db mice; 1 mg/kg once daily oral): 15.9 ± 1.1 mmol/L
- random blood glucose week 4 (db/db mice; 1 mg/kg once daily oral): 15.1 ± 1.4 mmol/L
- random blood glucose Pre (db/db mice; 1 mg/kg once daily oral): 16.8 ± 1.2 mmol/L
- random blood glucose week 1 (db/db mice; 3 mg/kg once daily oral): 14.7 ± 0.9 mmol/L
- random blood glucose week 2 (db/db mice; 3 mg/kg once daily oral): 13.0 ± 0.8 mmol/L
- random blood glucose week 3 (db/db mice; 3 mg/kg once daily oral): 12.4 ± 1.0 mmol/L
- random blood glucose week 4 (db/db mice; 3 mg/kg once daily oral): 13.2 ± 0.9 mmol/L
- random blood glucose Pre (db/db mice; 3 mg/kg once daily oral): 18.7 ± 1.2 mmol/L
- random blood glucose week 1 (db/db mice; 10 mg/kg once daily oral): 12.9 ± 0.6 mmol/L
- random blood glucose week 2 (db/db mice; 10 mg/kg once daily oral): 10.6 ± 0.5 mmol/L
- random blood glucose week 3 (db/db mice; 10 mg/kg once daily oral): 9.1 ± 0.4 mmol/L
- random blood glucose week 4 (db/db mice; 10 mg/kg once daily oral): 9.7 ± 0.7 mmol/L
- random blood glucose Pre (db/db mice; 10 mg/kg once daily oral): 18.3 ± 1.6 mmol/L
- Hypoglycemic rate % week 1 (db/db mice; 0.3 mg/kg once daily oral): 14.0%
- Hypoglycemic rate % week 2 (db/db mice; 0.3 mg/kg once daily oral): 19.1%
- Hypoglycemic rate % week 3 (db/db mice; 0.3 mg/kg once daily oral): 18.0%
- Hypoglycemic rate % week 4 (db/db mice; 0.3 mg/kg once daily oral): 7.8%
- Hypoglycemic rate % week 1 (db/db mice; 1 mg/kg once daily oral): 17.9%
- Hypoglycemic rate % week 2 (db/db mice; 1 mg/kg once daily oral): 16.0%
- Hypoglycemic rate % week 3 (db/db mice; 1 mg/kg once daily oral): 21.8%
- Hypoglycemic rate % week 4 (db/db mice; 1 mg/kg once daily oral): 27.0%
- Hypoglycemic rate % week 1 (db/db mice; 3 mg/kg once daily oral): 25.4%
- Hypoglycemic rate % week 2 (db/db mice; 3 mg/kg once daily oral): 33.1%
- Hypoglycemic rate % week 3 (db/db mice; 3 mg/kg once daily oral): 39.0%
- Hypoglycemic rate % week 4 (db/db mice; 3 mg/kg once daily oral): 36.6%
- Hypoglycemic rate % week 1 (db/db mice; 10 mg/kg once daily oral): 34.3%
- Hypoglycemic rate % week 2 (db/db mice; 10 mg/kg once daily oral): 45.3%
- Hypoglycemic rate % week 3 (db/db mice; 10 mg/kg once daily oral): 55.3%
- Hypoglycemic rate % week 4 (db/db mice; 10 mg/kg once daily oral): 53.1%
- The total amount of glucose excreted (SD rats; Table 3): 337.10 ± 313.7
- Urine glucose concentration (SD rats; Table 3): 76.29 ± 71.20
- Urine volume (SD rats; Table 3, in mL): 24 ± 6.63
